Data published in PubChem BioAssay AID1963974 (Molecular Pharmacology Branch, DTP, NCI, 2024).

System: 648629-189-R-J1-PDC spheroids with HUVEC/MSC, viability
Experiment: Anticancer human tumor 648629-189-R-J1-PDC patient-derived bladder carcinoma cell line growth inhibition [PI3K]
Details: for IC50: curve of first compound; for viability, T/C: stronger effect = lower value
From the text: Combinatorial screen of targeted agents with the PI3K inhibitors inavolisib, alpelisib, duvelisib, and copanlisib in multi-cell type tumor spheroids
A high-throughput screen of multi-cell type tumor spheroids was designed to identify active combinations of targeted small molecules and PI3K pathway inhibitors. Complex spheroids include a stromal component modeled by human endothelial cells (HUVEC) and fibroblasts modeled by human mesenchymal stem cells (MSCs). The concentration ranges selected for each drug and investigational agent were based upon clinically achievable concentrations if the clinical Cmax of the agent was known.
Compounds. The drugs and investigational agents: inavolisib (NSC800729), alpelisib (NSC765974), duvelisib (NSC772469), copanlisib (NSC816437), ipatasertib (NSC767898), afuresertib (NSC778305), talazoparib (NSC767125), sapanisertib (NSC764658), selumetinib (NSC741078), tovorafenib (DAY101, NSC766906), vemurafenib (NSC761431), ravoxertinib (NSC781343), sotorasib (NSC818433), MRTX1133 (NSC 836407), abemaciclib (NSC 768073), palbociclib (NSC758247), venetoclax (NSC 766270), SY5609 (NSC837396), enzalutamide (NSC755605), and darolutamide (NSC825331), were obtained from the National Cancer Institute (NCI) Developmental Therapeutics Program Chemical Repository. The FDA-approved anticancer drug set is available from the NCI Developmental Therapeutics Program. […] The stock solutions were prepared in dimethyl sulfoxide (DMSO, Sigma-Aldrich, St. Louis, MO, cat. D2650) at 800-fold the tested concentration and stored at -70 degrees C prior to their use. All drugs and investigational agents were tested over a range starting from a high concentration at or near the clinical Cmax and decreasing in half-log increments. If the clinical Cmax for an agent had not been determined, the highest concentration tested was 10 microM.
Cell Culture. All cells were maintained in an incubator at 37 degrees C and 5% CO2 with 95% humidity. The PDC lines were cultured according to standard operating procedures established by the NCI PDMR (https://pdmr.cancer.gov/sops/default.htm). All PDCs were thawed and cultured in Matrigel-coated flasks prepared with a working solution of 1X Ham's F-12 nutrient mix, without supplementation (Invitrogen, Waltham, MA, cat. 11765054), 100 U/mL penicillin-streptomycin (Invitrogen, cat. 15140122), and 2.5% Matrigel (Corning Inc., Corning, NY, cat. 354248) for the first three passages. The 354836-022-R-J1-PDC, 475296-252-R-J1-PDC, and 997726-040-R-J2-PDC lines were cultured in 6A media, which includes advanced DMEM/F-12 (Thermo Fisher Scientific, cat. 12634028), 10 mM HEPES (Thermo Fisher Scientific, cat. 15630080), 1X GlutaMAX supplement (Thermo Fisher Scientific, cat. 35050061), 0.1 mg/mL primocin (InvivoGen, San Diego, CA, cat. ant-pm-2), 10% defined fetal bovine serum, heat inactivated (HyClone Laboratories Inc., Logan, UT, cat. SH30070.03HI), 50% L-WRN conditioned media (ATCC, cat. CRL-3276), 1.25 mM N-Acetyl-L-cysteine (Sigma-Aldrich, cat. A9165), 10 mM nicotinamide (Sigma-Aldrich, cat. N0636), 1X B-27 supplement (Thermo Fisher Scientific, cat. 17504044), 1X N-2 supplement (Thermo Fisher Scientific, cat. 17502048), and 10 microM Y-27632 dihydrochloride (Tocris Bioscience, Bristol, United Kingdom, cat. 1254). The 624824-186-R-J2-PDC line was cultured in 6C/Colon 1B media, which includes all 6A media components plus 50 ng/mL human EGF recombinant protein (Thermo Fisher Scientific, cat. PHG0311). […]

[1] = second compound 0.0316 µM, first compound 0.0316 µM
[2] = second compound 0.0316 µM, first compound 0.1 µM
[3] = second compound 0.0316 µM, first compound 0.316 µM
[4] = second compound 0.0316 µM, first compound 1 µM
[5] = second compound 0.0316 µM, first compound 3.16 µM
[6] = second compound 0.0316 µM, first compound 10 µM
[7] = second compound 0.1 µM, first compound 0.0316 µM
[8] = second compound 0.1 µM, first compound 0.1 µM
[9] = second compound 0.1 µM, first compound 0.316 µM
[10] = second compound 0.1 µM, first compound 1 µM
[11] = second compound 0.1 µM, first compound 3.16 µM
[12] = second compound 0.1 µM, first compound 10 µM
[13] = second compound 0.316 µM, first compound 0.0316 µM
[14] = second compound 0.316 µM, first compound 0.1 µM
[15] = second compound 0.316 µM, first compound 0.316 µM
[16] = second compound 0.316 µM, first compound 1 µM
[17] = second compound 0.316 µM, first compound 3.16 µM
[18] = second compound 0.316 µM, first compound 10 µM
[19] = second compound 1 µM, first compound 0.0316 µM
[20] = second compound 1 µM, first compound 0.1 µM
[21] = second compound 1 µM, first compound 0.316 µM
[22] = second compound 1 µM, first compound 1 µM
[23] = second compound 1 µM, first compound 3.16 µM
[24] = second compound 1 µM, first compound 10 µM
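Further: spheroids exposed to agents for seven days before reading.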
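Wherever viability, T/C is given: percent of vehicle control luminescence where 100% = DMSO treated spheroids.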

SMILES: CC(C)NCC(C(=O)N1CCN(c2ncnc3c2C(C)CC3O)CC1)c1ccc(Cl)cc1 (centres undefined) + CC(Nc1ncnc2nc[nH]c12)c1cc2cccc(Cl)c2c(=O)n1-c1ccccc1
- IC50 (second compound 0.0316 µM): 1050 nM
- IC50 (second compound 0.1 µM): 1520 nM
- IC50 (second compound 0.316 µM): 1140 nM
- IC50 (second compound 1 µM): 1230 nM
- IC50 (second compound 3.16 µM): 904 nM
- IC50 (second compound 10 µM): 1010 nM
- viability, T/C [1]: 99.8%
- viability, T/C [2]: 93.6%
- viability, T/C [3]: 82%
- viability, T/C [4]: 49.4%
- viability, T/C [5]: 28.9%
- viability, T/C [6]: 17.3%
- viability, T/C [7]: 97.3%
- viability, T/C [8]: 90.3%
- viability, T/C [9]: 79.7%
- viability, T/C [10]: 61.3%
- viability, T/C [11]: 32.2%
- viability, T/C [12]: 19.3%
- viability, T/C [13]: 97.4%
- viability, T/C [14]: 91.2%
- viability, T/C [15]: 76.3%
- viability, T/C [16]: 53.4%
- viability, T/C [17]: 29.2%
- viability, T/C [18]: 17.7%
- viability, T/C [19]: 93.6%
- viability, T/C [20]: 94.5%
- viability, T/C [21]: 80.7%
- viability, T/C [22]: 54.2%
- viability, T/C [23]: 29.4%
- viability, T/C [24]: 17.5%
- viability, T/C (second compound 3.16 µM, first compound 0.0316 µM): 101%
- viability, T/C (second compound 3.16 µM, first compound 0.1 µM): 91.3%
- viability, T/C (second compound 3.16 µM, first compound 0.316 µM): 72.6%
- viability, T/C (second compound 3.16 µM, first compound 1 µM): 48.6%
- viability, T/C (second compound 3.16 µM, first compound 3.16 µM): 25.9%
- viability, T/C (second compound 3.16 µM, first compound 10 µM): 15.5%
- viability, T/C (second compound 10 µM, first compound 0.0316 µM): 83.8%
- viability, T/C (second compound 10 µM, first compound 0.1 µM): 72.2%
- viability, T/C (second compound 10 µM, first compound 0.316 µM): 79.4%
- viability, T/C (second compound 10 µM, first compound 1 µM): 48.4%
- viability, T/C (second compound 10 µM, first compound 3.16 µM): 28.3%
- viability, T/C (second compound 10 µM, first compound 10 µM): 18.2%

SMILES: C#Cc1c(F)ccc2cc(O)cc(-c3ncc4c(N5CC6CCC(C5)N6)nc(OCC56CCCN5CC(F)C6)nc4c3F)c12 (centres undefined) + CC(Nc1ccc2c(c1)OCCn1cc(N3C(=O)OCC3C(F)F)nc1-2)C(N)=O
- IC50 (second compound 0.00316 µM): > 10000 nM
- IC50 (second compound 0.01 µM): > 10000 nM
- IC50 (second compound 0.0316 µM): > 10000 nM
- IC50 (second compound 0.1 µM): > 10000 nM
- IC50 (second compound 0.316 µM): > 10000 nM
- IC50 (second compound 1 µM): > 10000 nM
- viability, T/C (second compound 0.00316 µM, first compound 0.0316 µM): 105%
- viability, T/C (second compound 0.00316 µM, first compound 0.1 µM): 96.2%
- viability, T/C (second compound 0.00316 µM, first compound 0.316 µM): 109%
- viability, T/C (second compound 0.00316 µM, first compound 1 µM): 96.6%
- viability, T/C (second compound 0.00316 µM, first compound 3.16 µM): 120%
- viability, T/C (second compound 0.00316 µM, first compound 10 µM): 102%
- viability, T/C (second compound 0.01 µM, first compound 0.0316 µM): 97.9%
- viability, T/C (second compound 0.01 µM, first compound 0.1 µM): 99.9%
- viability, T/C (second compound 0.01 µM, first compound 0.316 µM): 96.3%
- viability, T/C (second compound 0.01 µM, first compound 1 µM): 97%
- viability, T/C (second compound 0.01 µM, first compound 3.16 µM): 106%
- viability, T/C (second compound 0.01 µM, first compound 10 µM): 85.8%
- viability, T/C [1]: 105%
- viability, T/C [2]: 100%
- viability, T/C [3]: 93.2%
- viability, T/C [4]: 99.1%
- viability, T/C [5]: 103%
- viability, T/C [6]: 92.5%
- viability, T/C [7]: 92.7%
- viability, T/C [8]: 85.5%
- viability, T/C [9]: 81.7%
- viability, T/C [10]: 90%
- viability, T/C [11]: 95.4%
- viability, T/C [12]: 89.3%
- viability, T/C [13]: 82.3%
- viability, T/C [14]: 75%
- viability, T/C [15]: 71.7%
- viability, T/C [16]: 74.8%
- viability, T/C [17]: 80.8%
- viability, T/C [18]: 75.3%
- viability, T/C [19]: 57.5%
- viability, T/C [20]: 66.4%
- viability, T/C [21]: 63.2%
- viability, T/C [22]: 58.7%
- viability, T/C [23]: 64.5%
- viability, T/C [24]: 57.4%
